Laboratory results reported in patent US20020137929A1, “1 - (3-heterocyclylphenyl) isothiourea, -isourea, -guanidine and -amidine herbicidal agents” (Intellectual Property Department, BASF Aktiengesellschaft, priority 1998, published 2002).

Legend:
CYPSE (Flatsedge) = test: Preemergence weed control under flooded paddy conditions; format: in vivo, Cyperus serotinus; settings: rated 3-4 weeks after treatment
Procedure, shortened: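 Ratings on a 0-9 visual scale cover stand, vigor, malformation, size, chlorosis and overall appearance relative to a control, taken three to four weeks post-treatment. Application was into flood water over freshly sown silt loam at roughly 0.0313 to 0.500 kg/ha.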

ZEAMX (Corn, Field) [1] = test: Preemergence herbicidal evaluation; format: in vivo, Zea mays; settings: rated 4-5 weeks after treatment, rating scale 0-9
Procedure, shortened: (§1)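 Seeds were planted in potting soil in cups, then sprayed preemergence with the test compound in aqueous acetone at about 0.0156 to 0.500 kg per hectare. Cups were kept under greenhouse conditions and visually rated 4–5 weeks after treatment on a 0–9 scale against an untreated control.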

GALAP (Galium) = test: Postemergence herbicidal evaluation; format: in vivo, Galium aparine; settings: postemergence
Procedure, shortened: (§2)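 Two-week-old seedlings sprayed with compound in 50/50 acetone/water plus 0.5% TWEEN 20, at about 0.0156 to 0.500 kg/ha, nozzle at 40 psi. Kept in greenhouse; rated visually 4-5 weeks after treatment on a 0-9 scale versus control, repeat tests averaged.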

CYPIR (Rice Flatsedge) = test: Preemergence weed control under flooded paddy conditions; format: in vivo, Cyperus iria; settings: rated 3-4 weeks after treatment
Procedure, shortened: (§3)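 Flooded-pot preemergence screen with silt loam and seeds in the upper 0.5 cm. Dose about 0.0313 to 0.500 kg/ha, delivered into flood water; visual 0-9 score after 3 to 4 weeks.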

ORYSAT (Rice, Tebonnet) = test: Preemergence herbicidal evaluation; format: in vivo, Oryza sativa, (L.) Tebonnet; settings: rated 4-5 weeks after treatment, rating scale 0-9
Procedure, shortened: as §1

[2] = tested on: TRZAWR (Wheat, Winter, cv Riband); test: Preemergence herbicidal evaluation; format: in vivo, Triticum aestivum; settings: rated 4-5 weeks after treatment, rating scale 0-9
Procedure, shortened: as §1

ZEAMX (Corn, Field) [3] = test: Postemergence herbicidal evaluation; format: in vivo, Zea mays; settings: postemergence
Procedure, shortened: as §2

AMBEL (Ragweed, Common) = test: Preemergence herbicidal evaluation; format: in vivo, Ambrosia artemisifolia; settings: rated 4-5 weeks after treatment, rating scale 0-9
Procedure, shortened: as §1

[4] = tested on: IPOHE (Morningglory, Ivyleaf); test: Preemergence herbicidal evaluation; format: in vivo, Ipomoea hederacea; settings: rated 4-5 weeks after treatment, rating scale 0-9
Procedure, shortened: as §1

[5] = tested on: CHEAL (Lambsquarters, Common); test: Preemergence herbicidal evaluation; format: in vivo, Chenopodium album; settings: rated 4-5 weeks after treatment, rating scale 0-9
Procedure, shortened: as §1

CASOB (Sicklepod) = test: Postemergence herbicidal evaluation; format: in vivo, Cassia obtusifolia; settings: postemergence
Procedure, shortened: as §2

[6] = tested on: ECHORC (Watergrass (Calif.)); test: Preemergence weed control under flooded paddy conditions; format: in vivo, Echinochloa oryzoides; settings: rated 3-4 weeks after treatment
Procedure, shortened: as §3

With `Cn1c(C(F)(F)F)cc(=O)n(-c2cc(N=C3SCC(=O)N3Cc3ccc(Cl)c(Cl)c3)c(Cl)cc2F)c1=O` [Compound 144, 3-{4-Chloro-5-{[3-(3,4-dichlorobenzyl)-4-oxo-2-thiazolidinylidene]amino}-2-fluorophenyl}-1-methyl-6-(trifluoromethyl)-2,4(1H,3H)-pyrimidinedione] the “herbicidal effect rating, CYPSE” value (CYPSE (Flatsedge); 0.0313 kg/ha) was 7.0, the “herbicidal effect rating, CYPSE” value (CYPSE (Flatsedge); 0.0625 kg/ha) was 7.0 and the “herbicidal effect rating, CYPSE” value (CYPSE (Flatsedge); 0.1250 kg/ha) was 9.0. For the same compound, the “herbicidal effect rating, CYPSE” value (CYPSE (Flatsedge); 0.2500 kg/ha) was 9.0, the “Preemergence herbicidal rating ZEAMX” value (ZEAMX (Corn, Field) [1]; rate 0.0156 kg/ha) was 0.0 and the “Preemergence herbicidal rating ZEAMX” value (ZEAMX (Corn, Field) [1]; rate 0.0313 kg/ha) was 0.0. For the same compound, the “Preemergence herbicidal rating ZEAMX” value (ZEAMX (Corn, Field) [1]; rate 0.0625 kg/ha) was 0.0, the “Preemergence herbicidal rating ZEAMX” value (ZEAMX (Corn, Field) [1]; rate 0.1250 kg/ha) was 0.0 and the “Preemergence herbicidal rating ZEAMX” value (ZEAMX (Corn, Field) [1]; rate 0.2500 kg/ha) was 0.0. For the same compound, the “Herbicidal rating GALAP” value (GALAP (Galium); rate 0.0156 kg/ha) was 3.0, the “Herbicidal rating GALAP” value (GALAP (Galium); rate 0.0313 kg/ha) was 3.0 and the “Herbicidal rating GALAP” value (GALAP (Galium); rate 0.0625 kg/ha) was 4.0. The “herbicidal effect rating, CYPIR” value (CYPIR (Rice Flatsedge); 0.0313 kg/ha) was 3.0, the “herbicidal effect rating, CYPIR” value (CYPIR (Rice Flatsedge); 0.0625 kg/ha) was 3.0 and the “herbicidal effect rating, CYPIR” value (CYPIR (Rice Flatsedge); 0.1250 kg/ha) was 9.0. For the same compound, the “herbicidal effect rating, CYPIR” value (CYPIR (Rice Flatsedge); 0.2500 kg/ha) was 9.0, the “Preemergence herbicidal rating ORYSAT” value (ORYSAT (Rice, Tebonnet); rate 0.0156 kg/ha) was 0.0 and the “Preemergence herbicidal rating ORYSAT” value (ORYSAT (Rice, Tebonnet); rate 0.0313 kg/ha) was 0.0. For the same compound, the “Preemergence herbicidal rating ORYSAT” value (ORYSAT (Rice, Tebonnet); rate 0.0625 kg/ha) was 0.0, the “Preemergence herbicidal rating ORYSAT” value (ORYSAT (Rice, Tebonnet); rate 0.1250 kg/ha) was 0.0 and the “Preemergence herbicidal rating ORYSAT” value (ORYSAT (Rice, Tebonnet); rate 0.2500 kg/ha) was 0.0. The “Preemergence herbicidal rating TRZAWR” value ([2]; rate 0.0156 kg/ha) was 0.0, the “Preemergence herbicidal rating TRZAWR” value ([2]; rate 0.0313 kg/ha) was 0.0 and the “Preemergence herbicidal rating TRZAWR” value ([2]; rate 0.0625 kg/ha) was 0.0. For the same compound, the “Preemergence herbicidal rating TRZAWR” value ([2]; rate 0.1250 kg/ha) was 0.0, the “Preemergence herbicidal rating TRZAWR” value ([2]; rate 0.2500 kg/ha) was 0.0 and the “Herbicidal rating ZEAMX” value (ZEAMX (Corn, Field) [3]; rate 0.0156 kg/ha) was 4.0. The “Herbicidal rating ZEAMX” value (ZEAMX (Corn, Field) [3]; rate 0.0313 kg/ha) was 4.0, the “Herbicidal rating ZEAMX” value (ZEAMX (Corn, Field) [3]; rate 0.0625 kg/ha) was 4.5 and the “Preemergence herbicidal rating AMBEL” value (AMBEL (Ragweed, Common); rate 0.0156 kg/ha) was 0.0. For the same compound, the “Preemergence herbicidal rating AMBEL” value (AMBEL (Ragweed, Common); rate 0.0313 kg/ha) was 0.0, the “Preemergence herbicidal rating AMBEL” value (AMBEL (Ragweed, Common); rate 0.0625 kg/ha) was 0.0 and the “Preemergence herbicidal rating AMBEL” value (AMBEL (Ragweed, Common); rate 0.1250 kg/ha) was 4.0. For the same compound, the “Preemergence herbicidal rating AMBEL” value (AMBEL (Ragweed, Common); rate 0.2500 kg/ha) was 7.0, the “Preemergence herbicidal rating IPOHE” value ([4]; rate 0.0156 kg/ha) was 0.0 and the “Preemergence herbicidal rating IPOHE” value ([4]; rate 0.0313 kg/ha) was 0.0. For the same compound, the “Preemergence herbicidal rating IPOHE” value ([4]; rate 0.0625 kg/ha) was 0.0, the “Preemergence herbicidal rating IPOHE” value ([4]; rate 0.1250 kg/ha) was 0.0 and the “Preemergence herbicidal rating IPOHE” value ([4]; rate 0.2500 kg/ha) was 1.0. For the same compound, the “Preemergence herbicidal rating CHEAL” value ([5]; rate 0.0156 kg/ha) was 6.0, the “Preemergence herbicidal rating CHEAL” value ([5]; rate 0.0313 kg/ha) was 7.0 and the “Preemergence herbicidal rating CHEAL” value ([5]; rate 0.0625 kg/ha) was 9.0. For the same compound, the “Preemergence herbicidal rating CHEAL” value ([5]; rate 0.1250 kg/ha) was 9.0, the “Preemergence herbicidal rating CHEAL” value ([5]; rate 0.2500 kg/ha) was 9.0 and the “Herbicidal rating CASOB” value (CASOB (Sicklepod); rate 0.0156 kg/ha) was 3.0. The “Herbicidal rating CASOB” value (CASOB (Sicklepod); rate 0.0313 kg/ha) was 5.0, the “Herbicidal rating CASOB” value (CASOB (Sicklepod); rate 0.0625 kg/ha) was 7.0 and the “herbicidal effect rating, ECHORC” value ([6]; 0.0313 kg/ha) was 0.0. For the same compound, the “herbicidal effect rating, ECHORC” value ([6]; 0.0625 kg/ha) was 0.0, the “herbicidal effect rating, ECHORC” value ([6]; 0.1250 kg/ha) was 1.0 and the “herbicidal effect rating, ECHORC” value ([6]; 0.2500 kg/ha) was 3.0.
